Laboratory results reported in PubChem BioAssay (NCI).
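GI50 is the concentration that inhibits growth by half. The concentration for full growth arrest is given as TGI.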

What was measured:
Assay in all cases: DTP human tumour cell line panel, 384-well format
ACHN renal = system: ACHN renal
T-47D breast = system: T-47D breast
BT-549 breast = system: BT-549 breast
HCT-15 colon = system: HCT-15 colon
LOX IMVI melanoma = system: LOX IMVI melanoma
SF-295 CNS = system: SF-295 CNS
MDA-MB-231 breast = system: MDA-MB-231 breast
UACC-257 melanoma = system: UACC-257 melanoma
SN12C renal = system: SN12C renal
PC-3 prostate = system: PC-3 prostate
SW-620 colon = system: SW-620 colon
NCI-H226 lung = system: NCI-H226 lung
MDA-MB-468 breast = system: MDA-MB-468 breast
SK-MEL-5 melanoma = system: SK-MEL-5 melanoma
UO-31 renal = system: UO-31 renal
HT29 colon = system: HT29 colon
NCI-H23 lung = system: NCI-H23 lung
NCI/ADR-RES ovarian = system: NCI/ADR-RES ovarian
MOLT-4 leukemia = system: MOLT-4 leukemia
UACC-62 melanoma = system: UACC-62 melanoma
MCF7 breast = system: MCF7 breast
MALME-3M melanoma = system: MALME-3M melanoma
DU-145 prostate = system: DU-145 prostate
RXF 393 renal = system: RXF 393 renal
OVCAR-8 ovarian = system: OVCAR-8 ovarian
HOP-92 NSCLC = system: HOP-92 NSCLC
OVCAR-4 ovarian = system: OVCAR-4 ovarian
COLO 205 colon = system: COLO 205 colon
IGROV1 ovarian = system: IGROV1 ovarian
MDA-MB-435 melanoma = system: MDA-MB-435 melanoma
HOP-62 NSCLC = system: HOP-62 NSCLC
A498 renal = system: A498 renal
A549 NSCLC = system: A549 NSCLC
TK-10 renal = system: TK-10 renal
RPMI-8226 leukemia = system: RPMI-8226 leukemia
SF-268 CNS = system: SF-268 CNS
SNB-75 CNS = system: SNB-75 CNS
SF-539 CNS = system: SF-539 CNS
OVCAR-5 ovarian = system: OVCAR-5 ovarian
OVCAR-3 ovarian = system: OVCAR-3 ovarian
HL-60(TB) leukemia = system: HL-60(TB) leukemia
NCI-H322M lung = system: NCI-H322M lung
SNB-19 CNS = system: SNB-19 CNS
CAKI-1 renal = system: CAKI-1 renal
CCRF-CEM leukemia = system: CCRF-CEM leukemia
EKVX NSCLC = system: EKVX NSCLC
SK-OV-3 ovarian = system: SK-OV-3 ovarian
NCI-H460 NSCLC = system: NCI-H460 NSCLC
KM12 colon = system: KM12 colon
SK-MEL-28 melanoma = system: SK-MEL-28 melanoma
NCI-H522 lung = system: NCI-H522 lung
HS 578T breast = system: HS 578T breast
786-0 renal = system: 786-0 renal
K-562 leukemia = system: K-562 leukemia
M14 melanoma = system: M14 melanoma
HCC-2998 colon = system: HCC-2998 colon
SR leukemia = system: SR leukemia

Molecule `CN1CCN(c2cc(C(=O)Nc3cc4cc(-c5cnn(C)c5)ccc4cn3)ccn2)CC1` has a GI50 (ACHN renal) of 47.5 nM, a TGI (ACHN renal) of 219 nM and a GI50 (T-47D breast) of 67 nM. For the same molecule, the TGI (T-47D breast) was 340 nM, the GI50 (BT-549 breast) was 28.3 nM and the TGI (BT-549 breast) was 71.4 nM. It also gave a GI50 (HCT-15 colon) of 39.1 nM, a TGI (HCT-15 colon) of 157 nM and a GI50 (LOX IMVI melanoma) of 51.7 nM. For the same molecule, the TGI (LOX IMVI melanoma) was 172 nM, the GI50 (SF-295 CNS) was 99.8 nM and the TGI (SF-295 CNS) was 314 nM. The GI50 (MDA-MB-231 breast) was 87 nM, the TGI (MDA-MB-231 breast) was 654 nM and the GI50 (UACC-257 melanoma) was 36.3 nM. It also gave a TGI (UACC-257 melanoma) of 107 nM, a GI50 (SN12C renal) of 55.3 nM and a TGI (SN12C renal) of 228 nM. It also gave a GI50 (PC-3 prostate) of 76.7 nM, a TGI (PC-3 prostate) of 514 nM and a GI50 (SW-620 colon) of 33.6 nM. It also gave a TGI (SW-620 colon) of 1580 nM, a GI50 (NCI-H226 lung) of 131 nM and a TGI (NCI-H226 lung) of 370 nM. For the same molecule, the GI50 (MDA-MB-468 breast) was 26.8 nM, the TGI (MDA-MB-468 breast) was 53.9 nM and the GI50 (SK-MEL-5 melanoma) was 22.9 nM. For the same molecule, the TGI (SK-MEL-5 melanoma) was 92.2 nM, the GI50 (UO-31 renal) was 158 nM and the TGI (UO-31 renal) was 3160 nM. The GI50 (HT29 colon) was 138 nM, the TGI (HT29 colon) was 286 nM and the GI50 (NCI-H23 lung) was 18.9 nM. It also gave a TGI (NCI-H23 lung) of 47.5 nM, a GI50 (NCI/ADR-RES ovarian) of 71.4 nM and a TGI (NCI/ADR-RES ovarian) of 244 nM. It also gave a GI50 (MOLT-4 leukemia) of 18 nM, a TGI (MOLT-4 leukemia) of 33 nM and a GI50 (UACC-62 melanoma) of 27.8 nM. For the same molecule, the TGI (UACC-62 melanoma) was 88.7 nM, the GI50 (MCF7 breast) was 55.9 nM and the TGI (MCF7 breast) was 221 nM. It also gave a GI50 (MALME-3M melanoma) of 84.6 nM, a TGI (MALME-3M melanoma) of 213 nM and a GI50 (DU-145 prostate) of 50.2 nM. For the same molecule, the TGI (DU-145 prostate) was 282 nM, the GI50 (RXF 393 renal) was 118 nM and the TGI (RXF 393 renal) was 245 nM. For the same molecule, the GI50 (OVCAR-8 ovarian) was 72.4 nM, the TGI (OVCAR-8 ovarian) was 302 nM and the GI50 (HOP-92 NSCLC) was 39.6 nM. It also gave a TGI (HOP-92 NSCLC) of 398 nM, a GI50 (OVCAR-4 ovarian) of 58.9 nM and a TGI (OVCAR-4 ovarian) of 187 nM. For the same molecule, the GI50 (COLO 205 colon) was 26 nM, the TGI (COLO 205 colon) was 64.1 nM and the GI50 (IGROV1 ovarian) was 52.1 nM. The TGI (IGROV1 ovarian) was 255 nM, the GI50 (MDA-MB-435 melanoma) was 86.9 nM and the TGI (MDA-MB-435 melanoma) was 283 nM. For the same molecule, the GI50 (HOP-62 NSCLC) was 31.8 nM, the TGI (HOP-62 NSCLC) was 145 nM and the GI50 (A498 renal) was 32.8 nM. For the same molecule, the TGI (A498 renal) was 158 nM, the GI50 (A549 NSCLC) was 30.7 nM and the TGI (A549 NSCLC) was 129 nM. For the same molecule, the GI50 (TK-10 renal) was 116 nM, the TGI (TK-10 renal) was 442 nM and the GI50 (RPMI-8226 leukemia) was 24.5 nM. It also gave a TGI (RPMI-8226 leukemia) of 49.1 nM, a GI50 (SF-268 CNS) of 142 nM and a TGI (SF-268 CNS) of 438 nM. For the same molecule, the GI50 (SNB-75 CNS) was 105 nM, the TGI (SNB-75 CNS) was 261 nM and the GI50 (SF-539 CNS) was 121 nM. It also gave a TGI (SF-539 CNS) of 322 nM, a GI50 (OVCAR-5 ovarian) of 167 nM and a TGI (OVCAR-5 ovarian) of 640 nM. It also gave a GI50 (OVCAR-3 ovarian) of 30.2 nM, a TGI (OVCAR-3 ovarian) of 82.5 nM and a GI50 (HL-60(TB) leukemia) of 99.4 nM. For the same molecule, the TGI (HL-60(TB) leukemia) was 219 nM, the GI50 (NCI-H322M lung) was 68.2 nM and the TGI (NCI-H322M lung) was 858 nM. The GI50 (SNB-19 CNS) was 41.6 nM, the TGI (SNB-19 CNS) was 10200 nM and the GI50 (CAKI-1 renal) was 35.3 nM. The TGI (CAKI-1 renal) was 210 nM, the GI50 (CCRF-CEM leukemia) was 25.6 nM and the TGI (CCRF-CEM leukemia) was 53.5 nM. For the same molecule, the GI50 (EKVX NSCLC) was 62.5 nM, the TGI (EKVX NSCLC) was 1600 nM and the GI50 (SK-OV-3 ovarian) was 28.1 nM. It also gave a TGI (SK-OV-3 ovarian) of 112 nM, a GI50 (NCI-H460 NSCLC) of 51 nM and a TGI (NCI-H460 NSCLC) of 190 nM. For the same molecule, the GI50 (KM12 colon) was 32.9 nM, the TGI (KM12 colon) was 209 nM and the GI50 (SK-MEL-28 melanoma) was 125 nM. For the same molecule, the TGI (SK-MEL-28 melanoma) was 259 nM, the GI50 (NCI-H522 lung) was 26.6 nM and the TGI (NCI-H522 lung) was 65.5 nM. The GI50 (HS 578T breast) was 38.9 nM, the TGI (HS 578T breast) was 152 nM and the GI50 ([…]-0 renal) was 154 nM. The TGI (786-0 renal) was 316 nM, the GI50 (K-562 leukemia) was 52.8 nM and the TGI (K-562 leukemia) was 345 nM. The GI50 (M14 melanoma) was 75.9 nM, the TGI (M14 melanoma) was 221 nM and the GI50 (HCC-2998 colon) was 105 nM. The TGI (HCC-2998 colon) was 287 nM, the GI50 (SR leukemia) was 19.5 nM and the TGI (SR leukemia) was 40.8 nM.

`C[C@@H](CN1CC(=O)NC(=O)C1)N1CC(=O)NC(=O)C1` gave a GI50 (SN12C renal) of 74400 nM, a GI50 (SW-620 colon) of 83400 nM and a GI50 (MDA-MB-468 breast) of 29100 nM. It also gave a TGI (MDA-MB-468 breast) of 57900 nM, a GI50 (SK-MEL-5 melanoma) of 74800 nM and a GI50 (NCI-H23 lung) of 71800 nM. It also gave a GI50 (MOLT-4 leukemia) of 5070 nM, a TGI (MOLT-4 leukemia) of 17200 nM and a GI50 (MCF7 breast) of 77700 nM. For the same molecule, the GI50 (MALME-3M melanoma) was 34600 nM, the GI50 (DU-145 prostate) was 52400 nM and the GI50 (COLO 205 colon) was 10600 nM. The TGI (COLO 205 colon) was 27800 nM, the GI50 (A549 NSCLC) was 10100 nM and the GI50 (TK-10 renal) was 68000 nM. The GI50 (RPMI-8226 leukemia) was 3650 nM, the TGI (RPMI-8226 leukemia) was 19700 nM and the GI50 (HL-60(TB) leukemia) was 4320 nM. For the same molecule, the TGI (HL-60(TB) leukemia) was 18400 nM, the GI50 (SNB-19 CNS) was 96100 nM and the GI50 (CCRF-CEM leukemia) was 13700 nM. For the same molecule, the TGI (CCRF-CEM leukemia) was 29400 nM, the GI50 (NCI-H460 NSCLC) was 19700 nM and the GI50 (KM12 colon) was 91700 nM. It also gave a GI50 (NCI-H522 lung) of 53900 nM, a GI50 (HS 578T breast) of 21200 nM and a GI50 (M14 melanoma) of 55700 nM. It also gave a GI50 (SR leukemia) of 2150 nM and a TGI (SR leukemia) of 4680 nM.
